Results published in patent US5602128A, “N-heterocycloalkyl carboxamides as serotonergic agents” (American Home Products Corporation, priority 1994, dated 1997).

Target: T1, 5-HT1A serotonin receptor (Rattus norvegicus, UniProt P19327)
T1 construct: following the procedure of Hall et al., J. Neurochem; 44, 1685(1985); from tissue
T1 sequence (P19327 1-422): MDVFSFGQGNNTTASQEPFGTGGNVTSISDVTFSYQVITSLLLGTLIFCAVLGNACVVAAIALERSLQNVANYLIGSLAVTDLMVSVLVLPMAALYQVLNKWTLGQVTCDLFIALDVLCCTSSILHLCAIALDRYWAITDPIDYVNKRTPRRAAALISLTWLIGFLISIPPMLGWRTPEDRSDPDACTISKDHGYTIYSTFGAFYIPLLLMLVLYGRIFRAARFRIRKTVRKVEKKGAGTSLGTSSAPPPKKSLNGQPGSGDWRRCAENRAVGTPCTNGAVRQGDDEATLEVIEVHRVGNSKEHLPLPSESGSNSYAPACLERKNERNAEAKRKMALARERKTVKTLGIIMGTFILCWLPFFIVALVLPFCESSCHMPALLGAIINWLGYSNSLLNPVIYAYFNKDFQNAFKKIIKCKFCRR
Assay: displacement of [^3 H] 8-OHDPAT from the 5-HT1A serotonin receptor (procedure of Hall et al.)
Settings: read-out: 5-HT1A Binding (IC50)
Excerpt: High affinity for the serotonin 5-HT1A receptor was established by testing the claimed compound's ability to displace [^3 H] 8-OHDPAT (dipropylaminotetralin) from the 5-HT1A serotonin receptor following the procedure of Hall et al., J. Neurochem. 44, 1685(1985). […] The anxiolytic activity of buspirone is believed to be, at least partially, due to its 5-HT1A receptor affinity (Vander Maclen et al., Eur. J. Pharmacol. 1986, 129 (1-2) 133-130).
The result of the standard experimental test procedure described in the preceding paragraph was as follows when applied to the representative compound of this invention: […]

IC50: 95.2 nM
SMILES: COc1ccccc1N1CCN(CCC(C(=O)NCCN2CCOCC2)c2ccccc2)CC1 (stereo not shown) [Example 1, 4-[4-(2-Methoxy-phenyl)-piperazin-1-yl]-N-(2-morpholin-4-yl-ethyl)-2phenyl-butyramide]
